Data published in patent US20250073199A1, “Polymyxin Antibiotic Synergist and Anti-Gram-Negative Bacteria Pharmaceutical Composition” (Artivila Biopharma, priority 2022, published 2025).

Key:
[1] = test system: clinical resistant strain of Klebsiella pneumoniae 38206; assay: Chessboard combination test, bacterial inhibition rate / MIC / FIC; format: cell-based; settings: FIG. 2
Procedure: (§1) 1) a standard strain of Klebsiella pneumoniae ATCC13883, a clinical resistant strain of Klebsiella pneumoniae 38206, a standard strain of Acinetobacter baumannii ATCC19606, a standard strain of Escherichia coli ATCC25922, and a standard strain of Pseudomonas aeruginosa ATCC27853 were respectively cultured at 37° C. and under shaking at 220 rpm until OD600=0.6-0.8, where OD600 referred to the absorbance of the solution at a wavelength of 600 nm.
(§2) 2) The density of each bacterial culture with OD600=0.6-0.8 cultured in step 1) was adjusted to OD600=0.001 and placed in a chessboard experimental device.
(§3) 3) Polymyxin B was subjected to 2-fold serial dilution along the horizontal axis, and dronedarone was subjected to 2-fold serial dilution along the vertical axis.
(§4) 4) A blank group (added with a LB broth medium) and a control group (added with a LB broth medium and the standard bacterial solution cultured in step 1).
(§5) 5) The final volume in each well of a 96-well plate was controlled to be 100 μL. After incubation for 18 h, each well was added with 10 μL of MTT, incubated at a condition of 37° C. with protection from light for 30 min, and then determined for the absorbance at 600 nm with a microplate reader. The bacterial inhibition rate was calculated according to the formula: bacterial inhibition rate (%)=1−(OD600 of an experimental group−OD600 of the blank group)/(OD600 of the control group−OD600 of the blank group)×100%, and a bacterial calorimetry diagram was drawn (the results were shown in FIGS. 1-5).
(§6) The calculation equation of the FIC index was as follows:
(§7) FIC=MICab/MICa+MICba/MICb=FICa+FICb, wherein a represented the dronedarone, b represented the polymyxin B, MICab was a MIC value of a combination of the dronedarone and the polymyxin B, MICba was a MIC value of a combination of the polymyxin B and the dronedarone, MICa or MICb was a MIC value of the dronedarone or the polymyxin B, respectively, and FICa or FICb was a FIC value of the dronedarone or the polymyxin B, respectively.

[2] = test system: standard strain of Escherichia coli ATCC25922; assay: as above; format: cell-based; settings: FIG. 4
Procedure: as §1, §2, §3, §4, §5, §6, §7

[3] = test system: standard strain of Klebsiella pneumoniae ATCC13883; assay: as above; format: cell-based; settings: FIG. 1
Procedure: as §1, §2, §3, §4, §5, §6, §7

[4] = test system: standard strain of Acinetobacter baumannii ATCC19606; assay: as above; format: cell-based; settings: FIG. 3
Procedure: as §1, §2, §3, §4, §5, §6, §7

[5] = test system: standard strain of Pseudomonas aeruginosa ATCC27853; assay: as above; format: cell-based; settings: FIG. 5
Procedure: as §1, §2, §3, §4, §5, §6, §7

[6] = test system: clinical polymyxin B-resistant strain of Klebsiella pneumoniae (38206); assay: Mouse lung infection model, survival; format: in vivo, BALB/c female mice; settings: intraperitoneal injection, 7 days
Procedure: The dronedarone and the polymyxin B were combined to form a pharmaceutical composition, and used in combination in a mouse infection model to further illustrate the present disclosure.
1) Establishment of lung infection model: 60 BALB/c female mice aged 6-8 weeks (weighing about 20 g) were injected intrapulmonically with a lethal dose of a clinical polymyxin B-resistant strain of Klebsiella pneumoniae (38206) to establish an infection model. The concentration of the clinical polymyxin B-resistant strain of Klebsiella pneumoniae 38206 was 1.0×10^8 CFUs per mouse;
2) Group treatment: The female mice were randomly divided into six groups (n=10 mice per group), and treated with the drug through intraperitoneal injection.
Among them, the six groups included a control group (injected with a PBS buffer), a treatment group I (injected with 0.2 mg/kg of the polymyxin B alone), a treatment group II (injected with 10 mg/kg of the dronedarone alone), a treatment group III (injected with a mixed solution of 0.2 mg/kg of the polymyxin B and 1 mg/kg of the dronedarone), a treatment group IV (injected with a mixed solution of 0.2 mg/kg of the polymyxin B and 5 mg/kg of the dronedarone), and a treatment group V (injected with a mixed solution of 0.2 mg/kg of the polymyxin B and 10 mg/kg of the dronedarone). […]

[7] = in combination with dronedarone 2.5 μg/mL
[8] = in combination with dronedarone 5 μg/mL
[9] = polymyxin B 1 μg/mL, dronedarone not used
[10] = polymyxin B 2 μg/mL, dronedarone not used
[11] = in combination with polymyxin B 0.25 μg/mL

For polymyxin B, the “MICba (MIC of polymyxin B after combination with dronedarone)” value (from here on “MICba”) [1, 7] was 4 µg/mL, the inhibition percentage ([1]; polymyxin B 16 μg/mL, dronedarone not used) was 100% and the “MIC used alone (MICa, MICb)” value ([1]; used alone) was 16 µg/mL. The “MICba” value [2, 8] was 0.25 µg/mL, the inhibition percentage [2, 9] was 100% and the “MIC used alone (MICa, MICb)” value ([2]; used alone) was 1 µg/mL. The “MICba” value [3, 7] was 0.13 µg/mL, the inhibition percentage [3, 10] was 100% and the “MIC used alone (MICa, MICb)” value ([3]; used alone) was 2 µg/mL. For the same compound, the “MICba” value [4, 8] was 0.25 µg/mL, the inhibition percentage [4, 9] was 100% and the “MIC used alone (MICa, MICb)” value ([4]; used alone) was 2 µg/mL. For the same compound, the “MICba” value ([5]; in combination with dronedarone 10 μg/mL) was 1 µg/mL, the inhibition percentage [5, 10] was 100% and the “MIC used alone (MICa, MICb)” value ([5]; used alone) was 2 µg/mL. For the same compound, the survival rate ([6]; polymyxin B alone 0.2 mg/kg) was 10%.
For `CCCCc1oc2ccc(NS(C)(=O)=O)cc2c1C(=O)c1ccc(OCCCN(CCCC)CCCC)cc1` [dronedarone, N-[2-butyl-3-[4-[3-(dibutylamino)propoxy]benzoyl]-1-benzofuran-5-yl]methanesulfonamide], the inhibition at 20 µg/mL ([1]; Klebsiella pneumoniae, dronedarone alone at highest concentration 20 μg/mL, no polymyxin B, read-out: bacterial inhibition percentage) was ~0%, the MIC ([1]; Klebsiella pneumoniae, used alone, read-out: MIC used alone (MICa, MICb)) was > 20 µg/mL and the “MICab (MIC of dronedarone after combination with polymyxin B)” value (“MICab” below) ([1]; in combination with polymyxin B 4 μg/mL) was 2.5 µg/mL. For the same compound, the inhibition at 20 µg/mL ([2]; Escherichia coli, ATCC25922, dronedarone alone at highest concentration 20 μg/mL, no polymyxin B, read-out: bacterial inhibition percentage) was ~0%, the MIC ([2]; Escherichia coli, ATCC25922, used alone, read-out: MIC used alone (MICa, MICb)) was > 20 µg/mL and the “MICab” value [2, 11] was 5 µg/mL. The inhibition at 20 µg/mL ([3]; Klebsiella pneumoniae, ATCC13883, dronedarone alone at highest concentration 20 μg/mL, no polymyxin B, read-out: bacterial inhibition percentage) was ~0%, the MIC ([3]; Klebsiella pneumoniae, ATCC13883, used alone, read-out: MIC used alone (MICa, MICb)) was > 20 µg/mL and the “MICab” value ([3]; in combination with polymyxin B 0.13 μg/mL) was 2.5 µg/mL. For the same compound, the inhibition at 20 µg/mL ([4]; Acinetobacter baumannii, ATCC19606, dronedarone alone at highest concentration 20 μg/mL, no polymyxin B, read-out: bacterial inhibition percentage) was ~0%, the MIC ([4]; Acinetobacter baumannii, ATCC19606, used alone, read-out: MIC used alone (MICa, MICb)) was > 20 µg/mL and the “MICab” value [4, 11] was 5 µg/mL. For the same compound, the inhibition at 20 µg/mL ([5]; Pseudomonas aeruginosa, ATCC27853, dronedarone alone at highest concentration 20 μg/mL, no polymyxin B, read-out: bacterial inhibition percentage) was ~0%, the MIC ([5]; Pseudomonas aeruginosa, ATCC27853, used alone, read-out: MIC used alone (MICa, MICb)) was > 20 µg/mL and the “MICab” value ([5]; in combination with polymyxin B 1 μg/mL) was 10 µg/mL. It also gave a survival rate ([6]; dronedarone alone 10 mg/kg) of 10%.
